Measured values: US20150126467A1, “USE OF ALGINATE OLIGOMERS TO ENHANCE THE EFFECTS OF ANTIFUNGAL AGENTS” (AlgiIPharma AS, priority 2011, published 2015)
≈ marks a conversion by molar mass, not a printed value. Like-named read-outs stand apart in the source and are kept apart here.

Assays:
[1] = system: C. parapsillosis ATCC 22019T; experiment: Robotic MIC assay, Candida strains (Example 2); format: cell-based, Candida parapsilosis; settings: Lodderomyces parapsilosis, ATCC22019, 48 h, Mueller-Hinton broth, read-out: Minimum Inhibitory Concentration (MIC)
Experimental: (§1) A robotic MIC Assay was performed as follows. OligoG CF-5/20 were dissolved in medium (Mueller-Hinton broth or M19 broth depending on experiment) to 1.25 times of the desired assay concentrations (2, 6 and 10%). The antifungal agents under test were dissolved in medium without OligoG CF-5/20 and in medium with OligoG CF-5/20 at a concentration of 1.25 times the highest desired assay concentrations. For experiments where the effect of adding different concentrations of Na^+ was investigated, NaCl was dissolved in medium to the desired concentrations (10, 30 and 50 mM).
(§2) Two-fold serial dilutions of antifungal agents were made in medium with different concentrations of OligoG CF-5/20, and the solutions were placed in four parallel wells in Nunc 384-well micro plates (30 μl per well in Nunc 242757 microplates). A group of 8 wells with no addition of antifungal agents for each OligoG CF-5/20 concentration was included on each microplate as growth reference. To each well in the 384-well assay plates was added 7.5 μl of medium inoculated with a frozen stock culture of Candida albicans (strain CCUG 39343).
(§3) The micro plates were placed in plastic bags and incubated without shaking at 34° C. The optical density at 600 nm in the microwells was measured after approximately 13, 18, 24 and 34 hours of incubation, and the relative growth yield in each well was calculated based on the growth in the reference groups.
(§4) The robotic assay described in Example 1 was employed in this Example. Strains were grown in Mueller-Hinton broth (LAB114 from Lab M Limited) and MIC values (μg ml-1) were determined for each antifungal after incubation for 48 h in the presence of 0, 2, 6 and 10% OligoG CF-5/20 G-fragments. […] OligoG CF-5/20 G-fragments were provided by AlgiPharma AS, Norway.
(§5) Candida strains used were as follows: • C. albicans CCUG 39343 (strain from culture collection) • C. parapsillosis ATCC 22019T (strain from culture collection) • C. krusei 141/03 (candidosis) • C. krusei 249/03(2) (ulceration) • C. lusitaniae 994/01(2) (candidosis) • C. tropicalis 12 (vaginal) • C. tropicalis 75 (vaginal) • C. tropicalis 519468 (urinary) • C. tropicalis 544123 (urinary) • C. tropicalis 250/03 (candidosis) • C. tropicalis AG1 (oral) • C. tropicalis T2.2 (oral)

[2] = system: various Aspergillus species; experiment: Robotic MIC assay, summary over species (Example 4); format: cell-based; settings: Aspergillus species tested
Experimental: Aspergillus sp. was grown at 30° C. for 96 h on YM-agar. Spores and aerial mycelium was cut out from the agar, suspended in 1 ml YM-broth and dispersed with glass beads (1 mm) in a mini bead beater for 2 min. Glycerol was added to the suspension to 10% and frozen at −80° C.
Each batch of frozen stock culture was then characterized in separate growth experiments using Mueller-Hinton broth to determine the minimum amount of inoculum giving satisfactory growth after 48 h under the conditions relevant for the MIC assay. This inoculation procedure is used in order to reduce day to day variation in bioassays.
Robotic minimum inhibitory concentration (MIC) assay was performed as follows. OligoG CF-5/20 was dissolved in medium (Mueller-Hinton broth) to 1.25 times of the desired assay concentrations (2, 6 and 10%). […].
Two-fold serial dilutions of antifungal agents were made in medium with different concentrations of OligoG CF-5/20, and the solutions were placed in four parallel wells in Nunc 384-well micro plates (30 μl per well in Nunc 242757 microplates). A group of 8 wells with no addition of antifungal agents for each OligoG CF-5/20 concentration was included on each micro plate as growth reference. Each well in the 384-well assay plates was added 7.5 μl of the MH medium inoculated with frozen stock culture of the relevant strains.
The microplates were placed in plastic bags and incubated without shaking at 34° C. The optical density at 600 nm in the microwells was measured after approximately 24 and 48 hours of incubation. […]

[3] = system: C. tropicalis 544123 (urinary); experiment: Robotic MIC assay, Candida strains (Example 2); format: cell-based; settings: Candida tropicalis, 48 h, Mueller-Hinton broth, read-out: Minimum Inhibitory Concentration (MIC)
Experimental: as §1, §2, §3, §4, §5

C. tropicalis AG1 (oral) = experiment: Robotic MIC assay, Candida strains (Example 2); format: cell-based; settings: Candida tropicalis, 48 h, Mueller-Hinton broth, read-out: Minimum Inhibitory Concentration (MIC)
Experimental: as §1, §2, §3, §4, §5

[4] = system: C. tropicalis 250/03 (candidosis); experiment: Robotic MIC assay, Candida strains (Example 2); format: cell-based; settings: Candida tropicalis, 48 h, C. tropicalis 250/03 Candiosis, Mueller-Hinton broth, read-out: Minimum Inhibitory Concentration (MIC)
Experimental: as §1, §2, §3, §4, §5

C. albicans CCUG 39343 = experiment: Robotic MIC assay, Candida strains (Example 2); format: cell-based; settings: Candida albicans, CCUG39343, 48 h, Mueller-Hinton broth, read-out: Minimum Inhibitory Concentration (MIC)
Experimental: as §1, §2, §3, §4, §5

[5] = system: C. tropicalis 12 (vaginal); experiment: Robotic MIC assay, Candida strains (Example 2); format: cell-based; settings: Candida tropicalis, 48 h, Mueller-Hinton broth, read-out: Minimum Inhibitory Concentration (MIC)
Experimental: as §1, §2, §3, §4, §5

[6] = system: C. krusei 141/03 (candidosis); experiment: Robotic MIC assay, Candida strains (Example 2); format: cell-based; settings: Pichia kudriavzevii, 48 h, Mueller-Hinton broth, read-out: Minimum Inhibitory Concentration (MIC)
Experimental: as §1, §2, §3, §4, §5

[7] = system: C. tropicalis 519468 (urinary); experiment: Robotic MIC assay, Candida strains (Example 2); format: cell-based; settings: Candida tropicalis, 48 h, Mueller-Hinton broth, read-out: Minimum Inhibitory Concentration (MIC)
Experimental: as §1, §2, §3, §4, §5

[8] = system: C. lusitaniae 994/01(2) (candidosis); experiment: Robotic MIC assay, Candida strains (Example 2); format: cell-based; settings: Clavispora lusitaniae, 48 h, Mueller-Hinton broth, read-out: Minimum Inhibitory Concentration (MIC)
Experimental: as §1, §2, §3, §4, §5

[9] = system: C. krusei 249/03(2) (ulceration); experiment: Robotic MIC assay, Candida strains (Example 2); format: cell-based; settings: Pichia kudriavzevii, 48 h, Mueller-Hinton broth, read-out: Minimum Inhibitory Concentration (MIC)
Experimental: as §1, §2, §3, §4, §5

[10] = system: C. tropicalis T2.2 (oral); experiment: Robotic MIC assay, Candida strains (Example 2); format: cell-based; settings: Candida tropicalis, 48 h, Mueller-Hinton broth, read-out: Minimum Inhibitory Concentration (MIC)
Experimental: as §1, §2, §3, §4, §5

[11] = system: C. tropicalis 75 (vaginal); experiment: Robotic MIC assay, Candida strains (Example 2); format: cell-based; settings: Candida tropicalis, 48 h, Mueller-Hinton broth, read-out: Minimum Inhibitory Concentration (MIC)
Experimental: as §1, §2, §3, §4, §5

MIC ([1]; 0% OligoG): 2 µg/mL (≈ 6.86 µM)
MIC ([1]; 2% OligoG): 1 µg/mL (≈ 3.43 µM)
MIC ([1]; 6% OligoG): 2 µg/mL (≈ 6.86 µM)
MIC ([1]; 10% OligoG): 1 µg/mL (≈ 3.43 µM)
effect of addition of OligoG CF-5/20 on MIC values [2]: reduction in MIC values
MIC ([3]; 0% OligoG): > 32 µg/mL
MIC ([3]; 2% OligoG): > 32 µg/mL
MIC ([3]; 6% OligoG): > 32 µg/mL
MIC ([3]; 10% OligoG): > 32 µg/mL
MIC (C. tropicalis AG1 (oral); 0% OligoG): > 32 µg/mL
MIC (C. tropicalis AG1 (oral); 2% OligoG): 32 µg/mL (≈ 110 µM)
MIC (C. tropicalis AG1 (oral); 6% OligoG): > 32 µg/mL
MIC (C. tropicalis AG1 (oral); 10% OligoG): > 32 µg/mL
MIC ([4]; 0% OligoG): > 32 µg/mL
MIC ([4]; 2% OligoG): > 32 µg/mL
MIC ([4]; 6% OligoG): > 32 µg/mL
MIC ([4]; 10% OligoG): > 32 µg/mL
MIC (C. albicans CCUG 39343; 0% OligoG): > 32 µg/mL
MIC (C. albicans CCUG 39343; 2% OligoG): > 32 µg/mL
MIC (C. albicans CCUG 39343; 6% OligoG): > 32 µg/mL
MIC (C. albicans CCUG 39343; 10% OligoG): > 32 µg/mL
MIC ([5]; 0% OligoG): > 32 µg/mL
MIC ([5]; 2% OligoG): 16 µg/mL (≈ 54.9 µM)
MIC ([5]; 6% OligoG): > 32 µg/mL
MIC ([5]; 10% OligoG): 32 µg/mL (≈ 110 µM)
MIC ([6]; 0% OligoG): > 32 µg/mL
MIC ([6]; 2% OligoG): > 32 µg/mL
MIC ([6]; 6% OligoG): > 32 µg/mL
MIC ([6]; 10% OligoG): > 32 µg/mL
MIC ([7]; 0% OligoG): > 32 µg/mL
MIC ([7]; 2% OligoG): > 32 µg/mL
MIC ([7]; 6% OligoG): > 32 µg/mL
MIC ([7]; 10% OligoG): > 32 µg/mL
MIC ([8]; 0% OligoG): 8 µg/mL (≈ 27.5 µM)
MIC ([8]; 2% OligoG): 4 µg/mL (≈ 13.7 µM)
MIC ([8]; 6% OligoG): 4 µg/mL (≈ 13.7 µM)
MIC ([8]; 10% OligoG): 2 µg/mL (≈ 6.86 µM)
MIC ([10]; 0% OligoG): > 32 µg/mL
MIC ([10]; 2% OligoG): > 32 µg/mL
MIC ([10]; 6% OligoG): > 32 µg/mL
MIC ([10]; 10% OligoG): 32 µg/mL (≈ 110 µM)
MIC ([11]; 0% OligoG): > 32 µg/mL
MIC ([11]; 2% OligoG): > 32 µg/mL
MIC ([11]; 6% OligoG): > 32 µg/mL
MIC ([11]; 10% OligoG): > 32 µg/mL
Structure (SMILES): CN(C/C=C/C#CC(C)(C)C)Cc1cccc2ccccc12 [Terbinafine, terbinafine]
MIC ([9]; 0% OligoG): 4 µg/mL (≈ 13.7 µM)
MIC ([9]; 2% OligoG): 4 µg/mL (≈ 13.7 µM)
MIC ([9]; 6% OligoG): 8 µg/mL (≈ 27.5 µM)
MIC ([9]; 10% OligoG): 4 µg/mL (≈ 13.7 µM)
